According to ChEMBL document CHEMBL3885881, “DrugMatrix”:

Species: Rattus norvegicus
Assay: DrugMatrix - Regimen: Daily Repeat
Format: toxicity, organism-based, Sprague-Dawley
Design: regimen Daily Repeat, gender Male, age 6-8 weeks
Conditions: in vivo, po, route oral GAVAGE, […]; for ABSOLUTE BASOPHIL / ABSOLUTE EOSINOPHIL / ABSOLUTE LYMPHOCYTE / ABSOLUTE MONOCYTE / ABSOLUTE SEGMENTED NEUTROPHIL / BASOPHIL / EOSINOPHIL / ERYTHROCYTE COUNT / HEMATOCRIT / HEMOGLOBIN / LEUKOCYTE COUNT / LYMPHOCYTE / MEAN CORPUSCULAR HEMOGLOBIN / MEAN CORPUSCULAR HEMOGLOBIN CONCENTRATION / MEAN CORPUSCULAR VOLUME / MONOCYTE / NEUTROPHIL / NUCLEATED RED BLOOD CELLS / PLATELET COUNT: tissue Blood; for ALANINE AMINOTRANSFERASE / ALBUMIN / ALKALINE PHOSPHATASE / ASPARTATE AMINOTRANSFERASE / BLOOD UREA NITROGEN / CARBON DIOXIDE / CHLORIDE / CHOLESTEROL / CREATINE PHOSPHOKINASE / CREATININE / GLUCOSE / LACTATE DEHYDROGENASE / LIPASE / PHOSPHORUS / POTASSIUM / SODIUM / TOTAL BILIRUBIN / TOTAL PROTEIN / URIC ACID: tissue Plasma
[1] = 10 mg/kg, 120 h, dose level Low, time 5 day
[2] = 92 mg/kg, 72 h, dose level High, time 3 day
[3] = 92 mg/kg, 120 h, dose level High, time 5 day

## c1ccc2[nH]c(-c3cscn3)nc2c1 [THIABENDAZOLE]
[1]
  ABSOLUTE BASOPHIL: 0 CELLS/uL
  ABSOLUTE EOSINOPHIL: 61 CELLS/uL
  ABSOLUTE LYMPHOCYTE: 15391 CELLS/uL
  ABSOLUTE MONOCYTE: 225.67 CELLS/uL
  ABSOLUTE SEGMENTED NEUTROPHIL: 1089 CELLS/uL
  BASOPHIL: 0%
  EOSINOPHIL: 0.33%
  ERYTHROCYTE COUNT: 6.11 x10E6/uL
  HEMATOCRIT: 37.8%
  HEMOGLOBIN: 14.63 G/DL
  LEUKOCYTE COUNT: 16.77 x10E3/uL
  LYMPHOCYTE: 92%
  MEAN CORPUSCULAR HEMOGLOBIN: 23.97 pg
  MEAN CORPUSCULAR HEMOGLOBIN CONCENTRATION: 38.7 G/DL
  MEAN CORPUSCULAR VOLUME: 61.9 fL
  MONOCYTE: 1.33%
  NEUTROPHIL: 6.33%
  NUCLEATED RED BLOOD CELLS: 0 /100WBC
  PLATELET COUNT: 1202.33 x10E3/uL
  ALANINE AMINOTRANSFERASE: 79.33 u/L
  ALBUMIN: 4 G/DL
  ALKALINE PHOSPHATASE: 420.33 u/L
  ASPARTATE AMINOTRANSFERASE: 82.33 u/L
  BLOOD UREA NITROGEN: 12.33 mg/dL
  CARBON DIOXIDE: 30.67 mmol/L
  CHLORIDE: 100.67 MEQ/L
  CHOLESTEROL: 66.33 mg/dL
  CREATINE PHOSPHOKINASE: 192 u/L
  CREATININE: 0.19 mg/dL
  GLUCOSE: 163.67 mg/dL
  LACTATE DEHYDROGENASE: 183 u/L
  LIPASE: 10.33 u/L
  PHOSPHORUS: 11.47 mg/dL
  POTASSIUM: 6.52 MEQ/L
  SODIUM: 143.07 MEQ/L
  TOTAL BILIRUBIN: 0.13 mg/dL
  TOTAL PROTEIN: 5.6 G/DL
  URIC ACID: 1.87 mg/dL
[2]
  ABSOLUTE BASOPHIL: 0 CELLS/uL
  ABSOLUTE EOSINOPHIL: 24 CELLS/uL
  ABSOLUTE LYMPHOCYTE: 7261 CELLS/uL
  ABSOLUTE MONOCYTE: 24 CELLS/uL
  ABSOLUTE SEGMENTED NEUTROPHIL: 591 CELLS/uL
  BASOPHIL: 0%
  EOSINOPHIL: 0.33%
  ERYTHROCYTE COUNT: 5.57 x10E6/uL
  HEMATOCRIT: 35.07%
  HEMOGLOBIN: 13.8 G/DL
  LEUKOCYTE COUNT: 7.9 x10E3/uL
  LYMPHOCYTE: 91.33%
  MEAN CORPUSCULAR HEMOGLOBIN: 24.83 pg
  MEAN CORPUSCULAR HEMOGLOBIN CONCENTRATION: 39.4 G/DL
  MEAN CORPUSCULAR VOLUME: 63.07 fL
  MONOCYTE: 0.33%
  NEUTROPHIL: 8%
  NUCLEATED RED BLOOD CELLS: 0.33 /100WBC
  PLATELET COUNT: 1094.67 x10E3/uL
  ALANINE AMINOTRANSFERASE: 74.33 u/L
  ALBUMIN: 4.13 G/DL
  ALKALINE PHOSPHATASE: 448.67 u/L
  ASPARTATE AMINOTRANSFERASE: 82 u/L
  BLOOD UREA NITROGEN: 11.67 mg/dL
  CARBON DIOXIDE: 25 mmol/L
  CHLORIDE: 95.67 MEQ/L
  CHOLESTEROL: 85 mg/dL
  CREATINE PHOSPHOKINASE: 153.33 u/L
  CREATININE: 0.32 mg/dL
  GLUCOSE: 135.67 mg/dL
  LACTATE DEHYDROGENASE: 102 u/L
  LIPASE: 9.33 u/L
  PHOSPHORUS: 9.53 mg/dL
  POTASSIUM: 5.43 MEQ/L
  SODIUM: 139.33 MEQ/L
  TOTAL BILIRUBIN: 0.13 mg/dL
  TOTAL PROTEIN: 5.73 G/DL
  URIC ACID: 0.6 mg/dL
[3]
  ABSOLUTE BASOPHIL: 0 CELLS/uL
  ABSOLUTE EOSINOPHIL: 47 CELLS/uL
  ABSOLUTE LYMPHOCYTE: 13905 CELLS/uL
  ABSOLUTE MONOCYTE: 244.33 CELLS/uL
  ABSOLUTE SEGMENTED NEUTROPHIL: 703.67 CELLS/uL
  BASOPHIL: 0%
  EOSINOPHIL: 0.33%
  ERYTHROCYTE COUNT: 6.23 x10E6/uL
  HEMATOCRIT: 39.1%
  HEMOGLOBIN: 15 G/DL
  LEUKOCYTE COUNT: 14.9 x10E3/uL
  LYMPHOCYTE: 93.33%
  MEAN CORPUSCULAR HEMOGLOBIN: 24.1 pg
  MEAN CORPUSCULAR HEMOGLOBIN CONCENTRATION: 38.37 G/DL
  MEAN CORPUSCULAR VOLUME: 62.7 fL
  MONOCYTE: 1.67%
  NEUTROPHIL: 4.67%
  NUCLEATED RED BLOOD CELLS: 0 /100WBC
  PLATELET COUNT: 1269.33 x10E3/uL
  ALANINE AMINOTRANSFERASE: 73.33 u/L
  ALBUMIN: 4.13 G/DL
  ALKALINE PHOSPHATASE: 474.33 u/L
  ASPARTATE AMINOTRANSFERASE: 82 u/L
  BLOOD UREA NITROGEN: 13.33 mg/dL
  CARBON DIOXIDE: 25.67 mmol/L
  CHLORIDE: 101 MEQ/L
  CHOLESTEROL: 64.33 mg/dL
  CREATINE PHOSPHOKINASE: 344.33 u/L
  CREATININE: 0.18 mg/dL
  GLUCOSE: 187 mg/dL
  LACTATE DEHYDROGENASE: 278 u/L
  LIPASE: 10.33 u/L
  PHOSPHORUS: 12.03 mg/dL
  POTASSIUM: 6.59 MEQ/L
  SODIUM: 141.23 MEQ/L
  TOTAL BILIRUBIN: 0.2 mg/dL
  TOTAL PROTEIN: 5.7 G/DL
  URIC ACID: 2.43 mg/dL
